Where “and” joins values, the source holds several entries; their conditions need not be identical. Equal entries are not always repeated. Where two headings read alike, the source gives them in different places.
What was measured:
[1] = Quantification of nitrite by the Griess reaction (NO release); conditions: compounds at 10^-4 M, 5 mM of L-Cys (1:50), 1 h, 37°C
Experimental: The levels of nitrite resulting from the oxidation of NO in the aqueous medium were quantified through the Griess reaction after incubation with an excess of L-cysteine (1:50) according to previously published methods. The experiments were performed in triplicate and repeated three times on different days. […] The results were expressed as a percentage of nitrite (% NO2^−; mol/mol). Statistical analysis was carried out using ANOVA followed by Tukey’s Multiple Comparison Test at a significance level of p < 0.05.
The ability of all synthesized compounds (4a-x) and (14a-g) to release NO was evaluated by indirect determination of NO2^− production. The compounds at 10^−4 M were incubated for 1 h at 37°C in the presence of L-cysteine (1:50) and the produced NO2^− was determined through Griess reaction (Table 1).

[2] = target: T1, recombinant Leishmania cysteine protease LmCPB2.8ΔCTE (CPB) (Leishmania mexicana, UniProt P36400); assay: Enzymatic inhibition of recombinant CPB (Z-FR-AMC substrate); type: biochemical
T1 construct: The ORF that codes for the Leishmania mexicana CPB, lacking the C terminal extension (CPB2.8ΔCTE); made in house; host or cells: Pichia pastoris X-33
Experimental: The concentration of the active recombinant CPB expressed in Pichia pastoris supernatant was determined by active site titration with N-(trans-Epoxysuccinyl)-L-leucine 4-guanidinobutylamide E-64 (CalBiochem) that was found 1 μM. The active enzyme represented about 80% of the total recombinant enzyme.
Compounds were dissolved in DMSO to a final concentration of 20 μM. The assays were performed in dark 96 well-plates, containing 200 μL of 100 mM sodium acetate buffer (pH 5.5), 200 mM NaCl, 0.01% Triton-X100, 2 nM enzyme, various concentrations of inhibitor, and 5 μM of the substrate Z-FR-AMC (Calbiochem). The final concentration of DMSO was 1% (v/v). The enzyme was pre-incubated at 30°C for 2 minutes before the inhibitor was added, waited 2 minutes and after this incubation, the reaction was started by the addition of the substrate, Z-FR-AMC. The fluorescence was monitored at 380 nm excitation and 460 nm emission filters for 2 minutes at 30°C in an Infinite 200 PRO microplate reader (Tecan, Männedorf, Switzerland). The residual activity was measured by the ratio between enzyme + substrate and enzyme + inhibitor + substrate. […] Results were expressed in mean ± standard deviation of two independent replicates using Bioestat Software.

[3] = test system: L. infantum intracellular amastigotes; assay: Anti-amastigote activity in infected murine peritoneal macrophages; type: cell-based; conditions: Leishmania infantum, Peritoneal macrophage, 24 h, read-out: EC50 - Effective Concentration that kills 50% of L. infantum amastigote forms
Experimental: The antileishmanial activity against L. infantum intracellular amastigotes, according to the following methodology. […] Were used infected macrophages as negative control and amphotericin B as the positive control.
After incubation, cells were fixed with methanol and Giemsa stained. The effective concentration to 50% amastigotes death (EC) was obtained by counting 100 macrophages in duplicate, in two independent experiments. The values were obtained by non-linear regression on Bioestat® software, and results were expressed in mean ± standard deviation.

[4] = test system: L. infantum; assay: In vivo parasite load (LDU index) in L. infantum-infected BALB/c mice; conditions: oral, twice a day for five days; for reduction of parasite burden in liver and spleen: 7.7 mg/kg/day
Experimental: To evaluate the in vivo antileishmanial efficacy of compound 4f, male BALB/c mice, 20 ± 4 g, 6 weeks-old (CEMIB-UNICAMP) were intraperitoneally inoculated with 100 μL (1x10^8 parasites) of infective promastigotes of L. infantum (MHOM/MA/67/ITMAP-263) at the stationary phase. After nine days post-infection, the animals were treated by oral gavage (100 μL per dose) twice daily for 5 days with a 12h interval between doses according to the dosages described below, and euthanized. […] Work solutions were daily prepared in PBS. Negative controls correspond to infected and non-treated mice. As a positive control, a group of mice received 7.7 mg/kg/day of miltefosine, and a group of uninfected and untreated mice (healthy animals) was used for the analysis. The compound and miltefosine were orally administered twice a day for five days. After treatment, the animals were euthanized and the treatment efficacy was assessed by measuring the parasite burden of the infected animals using the LDU index.
LDU index. After the euthanasia, mice´s liver and spleen were collected for parasite quantification. Tissues impression onto microscopy slides were made, followed by Giemsa-staining and examining under optical microscopy. The corresponding number of amastigotes per 1,000 nucleated cells/organ weight was expressed as LDU index according to Stauber (1958), Sousa-Batista (2018), and Kwofie (2019).

[5] = Toxicity for mice: plasma biochemical markers; type: in vivo, BALB/c mice; conditions: for plasma creatinine: any group; for plasma creatinine / plasma total bilirubin levels: end of treatment; for plasma levels of AST, ALP, ALT, and creatinine: treated vs healthy groups; for plasma total bilirubin levels: treated vs infected untreated mice
Experimental: Toxicity for mice assays. The blood was collected in heparinized tubes and immediately centrifuged at 700×g for 10 min at 25°C to obtain plasma. Plasma levels of aspartate (AST), and alanine (ALT) transferases, alkaline phosphatase (ALP), creatinine, urea, and total bilirubin were determined at the end of treatment using commercial kits (Labtest Diagnóstica S.A., Brazil). The assays were performed according to Velasquez et al. (2017) and the data are expressed as average ± SEM. The statistical differences between groups were evaluated using a one-way analysis of variance, followed by the Student-Newman-Keuls multiple comparison test using GraphPad Prism software. Differences were considered significant when P values were […].

[6] = target: T1, recombinant Leishmania cysteine protease LmCPB2.8ΔCTE (CPB); conditions: read-out: IC50 - Inhibition of CPB (rCPB2.8); prototype/reference compounds; cited from earlier work
[7] = test system: L. infantum intracellular amastigotes; set-up: method as in PMID 24913171; conditions: prototype/reference compounds, cited from earlier work
[8] = test system: murine peritoneal macrophages; set-up: method as in PMID 24913171; conditions: prototype/reference compounds; cited from earlier work
[9] = test system: L. infantum; set-up: method as in PMID 28866421; conditions: L. infantum-infected hamsters, cited from earlier work

T1 sequence (P36400 126-341, stated change not applied): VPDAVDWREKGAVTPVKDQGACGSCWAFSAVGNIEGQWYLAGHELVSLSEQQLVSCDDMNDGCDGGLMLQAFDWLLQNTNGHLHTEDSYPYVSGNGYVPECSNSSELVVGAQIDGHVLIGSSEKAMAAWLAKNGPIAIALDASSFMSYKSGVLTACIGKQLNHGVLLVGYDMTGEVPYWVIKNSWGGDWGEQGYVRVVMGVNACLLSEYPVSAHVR

Compound | % NO2- (mol/mol) [1] | IC50 [2] [µM] | EC50 [3] [µM] | parasite reduction ([4]; 2.56 mg/kg/day) [%] | reduction of parasite burden in liver and spleen [4] | plasma creatinine [5] | plasma levels of AST, ALP, ALT, and creatinine [5] | plasma total bilirubin levels [5] | side effect (biochemical markers) ([5]; up to the highest dose 7.7 mg/kg/day) | melting point [°C] | IC50 [6] [µM] | SI - Selective Index (CC50/EC50) [7] | EC50 ([7]; read-out: EC50 L. infantum amastigote forms) [µM] | CC50 [8] [µM] | decrease of parasite load ([9]; 15 days, intraperitoneal) [%] | reduction of parasite load in the liver [9] [%] | reduction of parasite load in the spleen [9] [%] | toxic effects [9]
NC(=O)N/N=C/c1ccc(Oc2no[n+]([O-])c2-c2ccccc2)cc1 [Compound 4f, (E)-4-(4-((2-carbamoylhydrazono)methyl)phenoxy)-3-phenyl-1,2,5-oxadiazole 2-oxide] | 9.1 ± 0.7 % | 4.5 ± 0.1 | 3.6 ± 0.1 | 77 | 90% and ~ 90% | no alterations | similar | no significant alterations | without causing any evident side effect | – | – | – | – | – | – | – | – | –
NC(=O)c1c(COc2ccc(/C=N/NC(N)=S)cc2)no[n+]1[O-] [Compound 4o, (E)-4-((4-((2-carbamothioylhydrazono)methyl)phenoxy)methyl)-3-carbamoyl-1,2,5-oxadiazole 2-oxide] | 11.8 ± 1.2 % | > 20 | > 10 | – | – | – | – | – | – | 232 to 234 | – | – | – | – | – | – | – | –
O=C(N/N=C/c1ccc(Oc2no[n+]([O-])c2S(=O)(=O)c2ccccc2)cc1)c1cccc(O)c1 [Lapdesf14e, (E)-4-(4-((2-(3-hydroxybenzoyl)hydrazono)methyl)phenoxy)-3-(phenylsulfonyl)-1,2,5-oxadiazole 2-oxide] | 26% and 26.0 ± 1.6 % | – | – | – | – | – | – | – | – | – | 3.1 ± 0.4 | 66.4 | 3.1 ± 0.1 | 208.3 ± 0.2 | 50 | 54.2 | 49.9 | without toxic effects
CCCCCCCCCCCCCCCCOP(=O)([O-])OCC[N+](C)(C)C [miltefosine, reference compound] | – | – | – | – | ~ 90% | no alterations | similar | no significant alterations | – | – | – | – | – | – | – | – | – | –
